For 13 molecules, IC50 and inhibition results are on record in patent US9828379B2 (priority 2013, dated 2017).

Structures are written as SMILES.

Assay [1] has as its target T1, ABHD6 (Mus musculus, UniProt Q8R2Y0).
T1 sequence (Q8R2Y0 1-336): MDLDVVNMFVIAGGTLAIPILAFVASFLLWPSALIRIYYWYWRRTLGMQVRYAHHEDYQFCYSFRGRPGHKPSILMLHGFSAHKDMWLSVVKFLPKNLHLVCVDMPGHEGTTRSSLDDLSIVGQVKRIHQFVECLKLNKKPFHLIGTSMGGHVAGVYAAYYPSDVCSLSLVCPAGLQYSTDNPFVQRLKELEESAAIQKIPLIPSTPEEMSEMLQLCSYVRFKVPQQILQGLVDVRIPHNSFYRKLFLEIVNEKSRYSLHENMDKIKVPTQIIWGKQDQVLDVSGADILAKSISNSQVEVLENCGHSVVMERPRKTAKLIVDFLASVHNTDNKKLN
In words: biochemical. Particulars: in vitro competitive ABPP.

Assay [2] addresses T2, MAGL (Mus musculus, UniProt O35678).
T2 sequence (O35678 1-303): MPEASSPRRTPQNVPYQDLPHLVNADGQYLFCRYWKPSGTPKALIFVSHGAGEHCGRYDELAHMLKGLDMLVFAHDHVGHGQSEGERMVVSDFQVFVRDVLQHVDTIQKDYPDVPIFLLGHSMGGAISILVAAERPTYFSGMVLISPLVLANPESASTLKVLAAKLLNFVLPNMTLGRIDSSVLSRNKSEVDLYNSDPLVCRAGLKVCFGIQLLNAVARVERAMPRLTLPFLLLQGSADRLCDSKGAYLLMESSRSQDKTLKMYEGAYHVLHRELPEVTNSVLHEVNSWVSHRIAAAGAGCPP
The assay is described as follows: In vitro competitive activity-based protein profiling (Table 2, % inhibition at 1 μM). Type of assay: biochemical. Particulars: read-out: % Inhibition at 1 μM MAGL. The procedure: After 30 min, FP—Rh (1.0 μL, 50 μM in DMSO) was added and the mixture was incubated for another 30 min at 37° C. Reactions were quenched with SDS loading buffer (50 μL-4×) and run on SDS-PAGE.
Cell lysates were diluted with mock proteomes for use in competitive ABPP experiments.

Assay [3] deals with T2, MAGL. The assay is described as follows: biochemical. The settings on record: mouse; in vitro competitive ABPP; read-out: Mouse (IC50 value, nM) MAGL.
Assay [4] addresses T3, FAAH (Mus musculus, UniProt O08914).
T3 sequence (O08914 1-579): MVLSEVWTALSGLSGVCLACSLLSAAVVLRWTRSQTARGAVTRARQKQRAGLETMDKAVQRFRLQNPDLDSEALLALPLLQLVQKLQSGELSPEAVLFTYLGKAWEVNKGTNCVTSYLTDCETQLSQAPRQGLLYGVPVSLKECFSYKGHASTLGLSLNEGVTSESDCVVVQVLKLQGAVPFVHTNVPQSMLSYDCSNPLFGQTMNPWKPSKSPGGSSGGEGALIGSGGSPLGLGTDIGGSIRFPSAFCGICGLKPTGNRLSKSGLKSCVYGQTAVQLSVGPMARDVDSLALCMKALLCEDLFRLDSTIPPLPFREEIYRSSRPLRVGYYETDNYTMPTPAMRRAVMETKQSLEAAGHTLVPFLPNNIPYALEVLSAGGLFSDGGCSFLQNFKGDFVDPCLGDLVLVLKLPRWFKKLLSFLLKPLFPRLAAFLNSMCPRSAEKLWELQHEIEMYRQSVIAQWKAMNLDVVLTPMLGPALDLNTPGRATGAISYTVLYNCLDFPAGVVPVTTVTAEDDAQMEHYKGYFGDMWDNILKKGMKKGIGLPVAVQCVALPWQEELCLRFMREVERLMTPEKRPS
The assay is described as follows: In vitro competitive activity-based protein profiling (Table 2, % inhibition at 1 μM). The settings on record: read-out: % Inhibition at 1 μM FAAH. Type of assay: biochemical.

Assay [5] has as its target T1, ABHD6. The assay is described as above. Type of assay: biochemical. The settings on record: read-out: % Inhibition at 1 μM ABHD6.
Assay [6] addresses T3, FAAH. The assay is described as follows: biochemical. Particulars: in vitro competitive ABPP.

In general, IC50 refers to the concentration that gives 50% inhibition. By inhibition is commonly meant the percentage by which the read-out fell short of the control.

For the molecule `CN1CCN(c2c(Cl)cccc2CN2CC3CN(C(=O)OC(C(F)(F)F)C(F)(F)F)CC3C2)CC1` (stereo not drawn) [Example 171, 1,1,1,3,3,3-hexafluoropropan-2-yl 5-[[3-chloro-2-(4-methylpiperazin-1-yl)phenyl]methyl]-octahydropyrrolo[3,4-c]pyrrole-2-carboxylate], the IC50 on ABHD6 [1] was 1000 to 10000 nM; on MAGL [3], 100 to 1000 nM; at FAAH [6], above 10000 nM. Moreover, the inhibition at 1 µM is above 75% at MAGL [2], below 25% at FAAH [4] and below 25% on ABHD6 [5].

`O=C(OC(C(F)(F)F)C(F)(F)F)N1CC2CN(Cc3ccc(N4CCCC4)cc3C(F)F)CC2C1` (stereo not drawn) [Example 202, 1,1,1,3,3,3-hexafluoropropan-2-yl 5-(2-(difluoromethyl)-4-(pyrrolidin-1-yl)benzyl)hexahydropyrrolo[3,4-c]pyrrole-2(1H)-carboxylate]: the IC50 at ABHD6 [1] lay within 1000 to 10000 nM; on MAGL [3], 100 to 1000 nM; at FAAH [6], 1000 to 10000 nM. In addition, the inhibition at 1 µM at MAGL [2] is above 75%; on FAAH [4], 25 to 75%; on ABHD6 [5], below 25%.

With `CC(=O)N1CCN(c2ccc(CN3CC4CN(C(=O)OC(C(F)(F)F)C(F)(F)F)CC4C3)c(Cl)c2)CC1` (stereo not drawn) [Example 28, 1,1,1,3,3,3-Hexafluoropropan-2-yl 5-[[4-(4-acetylpiperazin-1-yl)-2-chlorophenyl]methyl]-octahydropyrrolo[3,4-c]pyrrole-2-carboxylate], the IC50 at ABHD6 [1] is 1000 to 10000 nM; on MAGL [3], below 100 nM; on FAAH [6] it was 100 to 1000 nM. Also, the inhibition at 1 µM on MAGL [2] was above 75%; at FAAH [4], 25 to 75%; at ABHD6 [5] it was below 25%.

For the molecule `O=C(OC(C(F)(F)F)C(F)(F)F)N1CC2CN(Cc3ccc(C(=O)N4CCCC4)c(OC(F)(F)F)c3)CC2C1` (stereo not drawn) [Example 193, 1,1,1,3,3,3-hexafluoropropan-2-yl 5-(4-(pyrrolidine-1-carbonyl)-3-(trifluoromethoxy)benzyl)hexahydropyrrolo[3,4-c]pyrrole-2(1H)-carboxylate], the values for the concentration for half-maximal inhibition (IC50) on ABHD6 [1], at MAGL [3] and at FAAH [6] were 1000 to 10000 nM, 100 to 1000 nM and above 10000 nM, respectively. The inhibition at 1 µM at MAGL [2] was above 75%; at FAAH [4], below 25%; at ABHD6 [5], 25 to 75%.

On to `CC(=O)N1CCN(c2cc(Cl)ccc2CN2CC3CN(C(=O)OC(C(F)(F)F)C(F)(F)F)CC3C2)CC1` (stereo not drawn) [Example 21, 1,1,1,3,3,3-Hexafluoropropan-2-yl 5-[[2-(4-acetylpiperazin-1-yl)-4-chlorophenyl]methyl]-octahydropyrrolo[3,4-c]pyrrole-2-carboxylate], for which the IC50 was 100 to 1000 nM on ABHD6 [1], below 100 nM at MAGL [3] and 1000 to 10000 nM at FAAH [6]. Further, the inhibition at 1 µM on MAGL [2] was above 75%; on FAAH [4], 25 to 75%; at ABHD6 [5], 25 to 75%.

As for `CC1COCCN1c1ccc(CN2CC3CN(C(=O)OC(C(F)(F)F)C(F)(F)F)CC3C2)c(F)c1` (stereo not drawn) [Example 25, 1,1,1,3,3,3-Hexafluoropropan-2-yl 5-[[2-fluoro-4-(3-methylmorpholin-4-yl)phenyl]methyl]-octahydropyrrolo[3,4-c]pyrrole-2-carboxylate], the IC50 at ABHD6 [1] is 1000 to 10000 nM; at MAGL [3], below 100 nM; at FAAH [6], 1000 to 10000 nM. The inhibition at 1 µM on MAGL [2] was above 75%; at FAAH [4], 25 to 75%; at ABHD6 [5], 25 to 75%.

`Cc1cccc(-c2cc(CN3CC4CN(C(=O)OC(C(F)(F)F)C(F)(F)F)CC4C3)n(C)n2)c1` (stereo not drawn) [Example 196, 1,1,1,3,3,3-hexafluoropropan-2-yl 5-((1-methyl-3-(m-tolyl)-1H-pyrazol-5-yl)methyl)hexahydropyrrolo[3,4-c]pyrrole-2(1H)-carboxylate]: the IC50 at ABHD6 [1] is 1000 to 10000 nM; at MAGL [3], below 100 nM; on FAAH [6], 1000 to 10000 nM. Besides, the inhibition at 1 µM is above 75% at MAGL [2], below 25% at FAAH [4] and below 25% on ABHD6 [5].

Turning to `O=C(OC(C(F)(F)F)C(F)(F)F)N1CC2CN(Cc3ccccc3-c3ccccc3)CC2C1` (stereo not drawn) [Example 12, 1,1,1,3,3,3-Hexafluoropropan-2-yl 5-[(2-phenylphenyl)methyl]-octahydropyrrolo[3,4-c]pyrrole-2-carboxylate], the values for the IC50 at ABHD6 [1], at MAGL [3] and on FAAH [6] were above 10000 nM, below 100 nM and 1000 to 10000 nM, respectively. In addition, the inhibition at 1 µM at MAGL [2] is above 75%; at FAAH [4], 25 to 75%; on ABHD6 [5], below 25%.

In the case of `O=C(OC(C(F)(F)F)C(F)(F)F)N1CC2CN(Cc3cccc(N4CCOCC4)c3Cl)CC2C1` (stereo not drawn) [Example 49, 1,1,1,3,3,3-Hexafluoropropan-2-yl 5-[[2-chloro-3-(morpholin-4-yl)phenyl]methyl]-octahydropyrrolo[3,4-c]pyrrole-2-carboxylate], the results for the IC50 at ABHD6 [1], on MAGL [3] and on FAAH [6] were 1000 to 10000 nM, below 100 nM and 1000 to 10000 nM, respectively. Further, the inhibition at 1 µM on MAGL [2] is above 75%; at FAAH [4], 25 to 75%; at ABHD6 [5], below 25%.

Turning to `CCN1CCN(c2c(C)cccc2CN2CC3CN(C(=O)OC(C(F)(F)F)C(F)(F)F)CC3C2)CC1` (stereo not drawn) [Example 148, 1,1,1,3,3,3-hexafluoropropan-2-yl 5-[[2-(4-ethylpiperazin-1-yl)-3-methylphenyl]methyl]-octahydropyrrolo[3,4-c]pyrrole-2-carboxylate], the IC50 on ABHD6 [1] is 1000 to 10000 nM; at MAGL [3], 100 to 1000 nM; at FAAH [6], above 10000 nM. Moreover, the inhibition at 1 µM was above 75% on MAGL [2], below 25% on FAAH [4] and below 25% on ABHD6 [5].

As for `CCn1ncc(CN2CC3CN(C(=O)OC(C(F)(F)F)C(F)(F)F)CC3C2)c1C(=O)NCc1ccccc1` (stereo not drawn) [Example 75, 1,1,1,3,3,3-Hexafluoropropan-2-yl 5-((5-(benzylcarbamoyl)-1-ethyl-1H-pyrazol-4-yl)methyl)hexahydropyrrolo[3,4-c]pyrrole-2(1H)-carboxylate], the values for the IC50 at ABHD6 [1], on MAGL [3] and at FAAH [6] were 100 to 1000 nM, below 100 nM and 1000 to 10000 nM, respectively. The inhibition at 1 µM was above 75% on MAGL [2], below 25% on FAAH [4] and above 75% at ABHD6 [5].

`CC(C)n1cc(CN2CC3CN(C(=O)OC(C(F)(F)F)C(F)(F)F)CC3C2)c(-c2ccccc2)n1` (stereo not drawn) [Example 53, 1,1,1,3,3,3-Hexafluoropropan-2-yl 5-[[3-phenyl-1-(propan-2-yl)-1H-pyrazol-4-yl]methyl]-octahydropyrrolo[3,4-c]pyrrole-2-carboxylate]: the figures for the IC50 on ABHD6 [1], at MAGL [3] and on FAAH [6] were 1000 to 10000 nM, below 100 nM and 1000 to 10000 nM, respectively. Further, the inhibition at 1 µM was above 75% on MAGL [2], below 25% on FAAH [4] and 25 to 75% at ABHD6 [5].

`O=C(ON1C(=O)CCC1=O)N1CC2CN(Cc3ccc(N4CCOCC4)cc3C(F)(F)F)CC2C1` (stereo not drawn) [Example 85, 2,5-Dioxopyrrolidin-1-yl 5-[[4-(morpholin-4-yl)-2-(trifluoromethyl)phenyl]methyl]-octahydropyrrolo[3,4-c]pyrrole-2-carboxylate]: the IC50 at ABHD6 [1] is 1000 to 10000 nM; on MAGL [3], 100 to 1000 nM; on FAAH [6] it was 100 to 1000 nM. The results for the inhibition at 1 µM at MAGL [2], at FAAH [4] and on ABHD6 [5] were above 75%, 25 to 75% and below 25%, respectively.
